Reference: patent publication US9980509B2, “Modification of bacterial profile of tobacco” (R.J. REYNOLDS TOBACCO COMPANY, priority 2013, dated 2018)

Experiments:
Lactobacillus = Lactobacillus (anaerobic) counts on MRS from field-treated tobacco leaf; assay type: in vivo
Description: (§1) Dark-air cured tobacco is treated five hours prior to harvest with one or more of a probiotic bacteria solution, and enzyme solution, and/or a 3% sodium chloride salt solution. The solution is applied using a backpack sprayer. Solutions are based on a 100 gallon solution per acre, using recommended plant spacings and dose per plant is provided below.
(§2) The treated tobacco is harvested and mid-stalk leaf samples are analyzed for total bacteria counts, enteric bacteria counts, and Lactobacillus counts. Ten grams of each treated tobacco sample is placed in Butterfields Phosphate Buffer and diluted 10^−2 to 10^−8 times with water. The treated tobacco sample dilutions are applied to plate count agar (PCA) for total aerobic bacteria counts, to violet red bile agar (VRBA) for gram negative bacteria counts, and to MRS for anaerobic (Lactobacillus) counts. The number of bacterial colonies, as visualized under magnification, are counted to estimate the total number of colony-forming units per gram, CFU/g.

[1] = system: enteric bacteria (gram negative bacteria); assay: Enteric bacteria counts (violet red bile agar) on field-treated tobacco leaf; assay type: in vivo; details: dark-air cured tobacco treated five hours prior to harvest; based on total bacteria counts before and after treatment
Description: as §1, §2

total aerobic bacteria = assay: Total bacteria counts (plate count agar) on field-treated tobacco leaf; assay type: in vivo; details: dark-air cured tobacco treated five hours prior to harvest; based on total bacteria counts before and after treatment
Description: as §1, §2

Dark tobacco plants = details: for NNN content relative to the level of quantification: potassium chloride-treated samples 1, 2, 3, 5, and 6; for NNN content relative to the level of quantification / NAT content relative to the level of quantification: all potassium sulfate-treated samples; for NAT content relative to the level of quantification: potassium chloride-treated samples 3, 5, and 6
Description: A first, 0.5 acre unplanted plot of soil was treated with a nitrogen-containing fertilizer comprising urea (N—P—K: 46-0-0) at a rate of 150 pounds per acre and a fertilizer incorporating diammonium phosphate and phosphorus (N—P—K: 18-46-0) at a rate of 180 pounds per acre by broadcast application. […] All fertilizer applications were incorporated into the soil after application.
A second, 0.5 acre unplanted plot of soil was treated with a nitrogen-containing fertilizer comprising urea (N—P—K: 46-0-0) at a rate of 150 pounds per acre and a fertilizer incorporating diammonium phosphate and phosphorus (N—P—K: 18-46-0) at a rate of 180 pounds per acre by broadcast application. The following day, a potassium chloride fertilizer (N—P—K: 0-0-60) was broadcast applied at 180 pounds per acre. All fertilizer applications were incorporated into the soil after application.
Dark tobacco plants were independently grown and were transplanted as seedlings (approximately 6-10 inches in length) to both plots (with 2450 plants per fertilized plot) four days after application of the potassium sources to the soil. […] The tobacco plants from both plots were harvested about three months after UAN treatment, and the harvested plants were moved to a traditional 1-acre air-curing barn. The plants were cured in the barn for about a month and a half.
After curing the plants, the leaves were removed from the stalks. The fourth leaf from the upper stalk position of six plants from each plot was taken for analysis. Each of these twelve leaves was prepared by removing the mid-rib stem from the leaf lamina.
The lamina was milled and the content of certain components was evaluated by liquid chromatography-mass spectrometry (LCMS). In particular, the leaves were analyzed in triplicate for TSNA content (namely, NNN, NNK, NAT, and NAB content).

Row | Structure (SMILES) | Lactobacillus increase after treatment (Lactobacillus; dark-air cured tobacco treated five hours prior to harvest, based on total bacteria counts before and after treatment) | Lactobacillus bacteria change after treatment (Lactobacillus; treated tobacco material, Example 1) | enteric bacteria reduction after treatment [1] | total bacteria reduction after treatment (total aerobic bacteria) | NAT content compared with potassium sulfate treatment (Dark tobacco plants; all cured leaf samples tested) | NNN content compared with potassium sulfate treatment (Dark tobacco plants; all cured leaf samples tested) | average decrease NAT with respect to the potassium sulfate-treated samples (Dark tobacco plants; cured leaf samples) | average decrease NNN with respect to the potassium sulfate-treated samples (Dark tobacco plants; cured leaf samples) | TSNA levels, particularly NNN and NNK, compared with leaves from potassium sulfate-treated soil (Dark tobacco plants; cured leaves) | NNN content relative to the level of quantification (Dark tobacco plants) | NAT content relative to the level of quantification (Dark tobacco plants)
1 | [Cl-].[Na+] [3% NaCl solution, sodium chloride] | greater than 400% | significant increase | 76% | 94% | – | – | – | – | – | – | –
2 | [Cl-].[K+] [Potassium Chloride, potassium chloride] | – | – | – | – | significant decreases | significant decreases | about 77% | about 69% | significantly lower | below the level of quantification | below the level of quantification
3 | O=S(=O)([O-])[O-].[K+].[K+] [Potassium Sulfate, potassium sulfate, reference compound] | – | – | – | – | – | – | – | – | – | well above such levels | well above such levels
